In series [1] the test system is OVA-TCR+ CD4+ T cells. The experiment in a line: Analysis of bioavailability: vaccination 3 days before transfer of CFSE-labeled OVA-specific CD4+ cells. Details: species or system BALB/c mice. The note with it: mouse, in vivo, iv. The protocol:
To test for the presence of bioactive material in the organism after an extended period of time (bioavailability), recipients were treated with pOVA or equimolar amounts of PEGylated peptides 3 days before transfer of CFSE-labeled OVA-specific CD4^+ cells. Proliferation was assessed 6 days after CD4^+ T cell transfer by dilution of CFSE intensity using flow cytometry.
We next addressed the question whether PEGylation leads to an extended half-life (bioavailability) of the antigenic peptide in the organism and whether size and structure of the PEG molecule matter. For this, we tested the degree of proliferation after vaccination with a single i.v. injection of pOVA or conjugates at 3 days prior to transfer of OVA-specific T cells ( Figure 3A ). Six days after cell transfer, splenocytes were isolated and proliferation of OVA-TCR^+ CD4^+ T cells was analyzed according to CFSE content.
Figure 3 Conjugation of pOVA to the macromolecular carrier PEG extends peptide bioavailability. (A) Set-up for analysis of the bioavailability. (B) OVA-specific CD4^+ CFSE-labeled T cells were transferred into BALB/c mice three days after i.v. peptide vaccination with unconjugated pOVA or equimolar amounts of pOVA-PEG conjugates. After 6 days proliferation was assessed by flow cytometry. Cells from spleen and pLN were gated on OVA-TCR^+ CD4^+ T cells. […]

Series [2] relates to Foxp3+ regulatory T cells among OVA-TCR+ CD4+ T cells. The series can be described thus: Adoptive transfer: Foxp3 expression of OVA-TCR+ CD4+ splenocytes after vaccination. The class given is in vivo, BALB/c mice.
Procedure: Cell fixation, permeabilization, and intracellular Foxp3 staining were performed using the eFluor450 anti-mouse Foxp3 (eBioscience) staining set according to manufacturer’s instructions.
On day 0, 5 × 10^6 CFSE-labeled CD4^+ cells from DO11.10 were adoptively transferred intravenously (i.v.) into syngeneic BALB/c mice. After 24 hours, mice were treated by a single i.v. injection of PBS (control), unconjugated pOVA or equimolar amounts of PEG-conjugated pOVA as indicated. […] On day 7, splenocytes were isolated, and OVA-TCR^+ CD4^+ T cells were identified by an anti-KJ1.26 antibody, recognizing the OVA-specific TCR on transferred DO11.10 cells.
To assess the immunomodulatory effect of administration of different types of PEGylated pOVA, we analyzed the expression of Foxp3, the master transcription factor of Tregs and the cytokine profile of antigen-specific T cells upon vaccination.
CFSE-labeled CD4^+ cells from DO11.10 mice were transferred into BALB/c mice. After 24 h, mice received either PBS (control), indicated doses of pOVA or equimolar amounts of PEGylated peptides. After 6 days, Foxp3 expression was assessed using flow cytometry. Spleen cells were gated on OVA-TCR^+ CD4^+ T cells. (A) Representative FACS dot plots of Foxp3 expression following tolerization with pOVA or pOVA-PEG conjugates at a dose of 5 µg (based on peptide amount). (B) Dose response curve in vivo. […]
Series [3] has as its system TNF-producing OVA-TCR+ CD4+ T cells. The class given is in vivo.
For series [4], the system named is Foxp3+ Tregs among OVA-TCR+ CD4+ cells. The experiment in a line: Adoptive transfer of Treg-depleted CD4+ cells: de novo induction of Foxp3+ Tregs. Type of series: in vivo, BALB/c mice. The note with it: 5 µg i.v. or equimolar, 6 days; spleen, pLN, mLN, livLN; n = 3-7. The protocol: To investigate whether Tregs are expanded or induced de novo, purified CFSE-labeled CD4^+ CD25^- CD103^- T cells from DO11.10 mice were adoptively transferred i.v. into BALB/c mice. After 24 h, mice were treated by a single i.v. injection of PBS (control), unconjugated pOVA at a dose of 5 µg per mouse or equimolar amounts of PEGylated pOVA. On day 7, different lymphatic organs were isolated and OVA-specific CD4^+ T cells were identified by an anti-KJ1.26 antibody.
To investigate whether the increase of Treg frequency following pOVA-PEG20 treatment is due to de novo induction or to expansion of pre-existing Tregs, we transferred Treg-depleted OVA-specific CD4^+ T cells prior to vaccination with pOVA or pOVA-PEG20. […] The frequency of Foxp3^+ Tregs reached similar levels following pOVA and pOVA-PEG20 administration in both spleen and pLN, whereas pOVA-PEG20 increased the Treg frequency in mLN (trend) and the livLN (significant) compared to pOVA.
Figure 5 Administration of pOVA-PEG20 leads to de novo induction of Foxp3^+ Tregs. Treg-depleted CD4^+ T cells from DO11.10 mice were transferred into BALB/c mice 24 h prior to treatment with PBS (control), 5 µg of pOVA or equimolar amounts of pOVA-PEG20. Six days post peptide vaccination, spleen, pLN, mLN and livLN were isolated and Foxp3 expression was analyzed using flow cytometry. […]

Series [5] has as its system OVA-TCR+ CD4+ T cells. The experiment in a line: Frequency of OVA-TCR+ CD4+ cells among total CD4+ splenocytes (deletion). Type of series: in vivo, BALB/c mice. The note with it: 5 µg i.v. or equimolar, day 6; compared to PBS (PEG20 also to pOVA); n = 5-11. The protocol: (§1) On day 0, 5 × 10^6 CFSE-labeled CD4^+ cells from DO11.10 were adoptively transferred intravenously (i.v.) into syngeneic BALB/c mice. After 24 hours, mice were treated by a single i.v. injection of PBS (control), unconjugated pOVA or equimolar amounts of PEG-conjugated pOVA as indicated. In some experiments, mice were also treated with unconjugated pOVA + 50 µg of lipopolysaccharide (LPS) or pOVA-PEG + 50 µg of LPS. On day 7, splenocytes were isolated, and OVA-TCR^+ CD4^+ T cells were identified by an anti-KJ1.26 antibody, recognizing the OVA-specific TCR on transferred DO11.10 cells.
Besides Treg expansion/induction and anergy, deletion of antigen-specific T effector cells by activation-induced cell death also dampens the immune response. […] Thus, vaccination with this conjugate is more efficient in triggering activation-induced death compared to native peptide or pOVA-PEG-tetramer vaccination where some death might outbalance induced proliferation.
Figure 8 Administration of pOVA-PEG20 reduces the frequency of OVA-TCR^+ CD4^+ T cells among total CD4^+ splenocytes. OVA-specific CD4^+ cells were transferred into BALB/c mice. After 24 h, mice received i.v. PBS (control), 5 µg of pOVA or equimolar amounts of pOVA-PEG conjugates. After 6 days, the frequency of OVA-TCR^+ CD4^+ cells among total CD4^+ T cells was assessed using flow cytometry. […]

The subject of series [6] is OVA-specific Th1 cells. The experiment in a line: Adoptive transfer of in vitro generated antigen-specific Th1 cells. The note with it: 5 µg i.v. or equimolar, 24 h after Th1 transfer, CFSE, n = 6. Type of series: in vivo. On the procedure:
CD4^+ T cells were isolated from DO11.10 mice via MACS-sorting as above and co-cultured 1:3 with APCs (CD4^- CD90^-) (final concentration: 2 x 10^6 cells/ml). Cells were incubated with 1 µg/ml of pOVA, IFN-γ (20 ng/ml) (R&D Systems, McKinley, USA), IL12 (5 ng/ml) (R&D), and anti-IL4-antibody (11B11, produced in house) (5 µg/ml). After 6 days, cells were harvested, and IFN-γ expression was assessed via flow cytometry.
5 × 10^6 purified polarized CFSE-labeled Th1 cells from DO11.10 mice were adoptively transferred i.v. into BALB/c mice. After 24 h, mice were treated by a single i.v. injection of PBS (control), unconjugated pOVA at a dose of 5 µg per mouse or equimolar amounts of PEGylated pOVA. On day 5, splenocytes were isolated, and OVA-specific Th1 cells were identified by an anti-KJ1.26 antibody.
To analyze these questions, in vitro generated OVA-specific Th1 effector cells ( Supplementary Figure 5 ) were transferred into BALB/c mice prior to peptide vaccination. Proliferation and expression of IFN-γ and Foxp3 were assessed on day 5.
Figure 9 pOVA-PEG20 vaccination in presence of pre-existing T effector cells. […] After four days, splenocytes were re-isolated and proliferation, IFN-γ and TNF production as well as Foxp3 expression was assessed using flow cytometry. […] (E, F) Absolute number of antigen-specific IFNγ or Foxp3^+ cells expressed as % of total CD4^+. […]

Series [7] deals with OVA-TCR+ CD4+ cells. The experiment in a line: Adoptive transfer with additional LPS (inflammatory conditions). Type of series: in vivo, BALB/c mice. The note with it: 5 µg i.v. or equimolar + 50 µg LPS, 6 days. On the procedure: as §1
To investigate the impact of inflammatory conditions, we analyzed the effect of lipopolysaccharide (LPS) application on the response of transferred unmanipulated OVA-TCR^+ CD4^+ cells.
24 h after adoptive transfer of OVA-specific CD4^+ T cells, recipients received i.v. PBS (control), 5 µg of pOVA or equimolar amounts of pOVA-PEG conjugates with or without additional LPS. After 6 days, splenocytes were isolated and Foxp3 expression as well as TNF production was assessed by flow cytometry. (A) % TNF^+ cells gated on OVA-specific CD4^+ cells, mean ± SD of data from three independent experiments. (B) % KJ1.26^+ (OVA-specific) splenocytes among total CD4^+ population; mean ± SD of pooled data from three independent experiments. […]

In series [8] the test system is Th1-driven DTH footpad swelling. The experiment in a line: Delayed-type hypersensitivity (DTH) model, footpad swelling. Type of series: in vivo, BALB/c mice. The note with it: 5 µg i.v. or equimolar; Th1 transfer day 7; footpad challenge pOVA/IFA; 8 days; n = 15. On the procedure:
pOVA-specific CD4^+ cells were adoptively transferred into BALB/c mice, which were treated i.v. with PBS (control), 5 μg of pOVA or equimolar amounts of pOVA-PEG20 24 h later (tolerization). To induce the effector phase, in vitro generated pOVA-specific Th1 cells were transferred into the recipients on day 7. After 24 h, pOVA in IFA or PBS/IFA were injected into the left or right hind footpad, respectively. Footpad swelling was monitored for 8 consecutive days and expressed as Δ footpad thickness.
To investigate whether pOVA-PEG20 is able to prevent the development of an inflammatory reaction in vivo, we used a DTH model based on the transfer of pre-formed Th1 cells, intra-footpad challenge with pOVA and measurement of footpad swelling for 8 days. […] As discussed below, a clearer superiority of PEGylated peptide over native peptide in tolerance induction was found in a more physiological EAE-model studied in parallel ([35]).
OVA-specific CD4^+ cells were adoptively transferred into BALB/c mice, which were treated i.v. with PBS (control), 5 μg of pOVA or equimolar amounts of pOVA-PEG20 24 h later. On day 7, in vitro generated OVA-specific Th1 cells were transferred into the recipients. […] The difference in footpad thickness after challenge was monitored for eight consecutive days. […]

With ISQAVHAAHAEINEAGR [pOVA], in series [1], the “T cell proliferation when vaccinated 3 days prior to T cell transfer (bioavailability)” value is on record as “Little T cell proliferation”. In addition, the “Foxp3+ among OVA-TCR+ CD4+ splenocytes, representative FACS dot plot (Fig. 4A gate number)” value in series [2] (5 µg i.v. (based on peptide amount), 6 days after treatment, single representative plot) worked out at 24.7%. In series [2] (5 µg i.v. or equimolar, pOVA, PEG40, tetramer compared to PBS, PEG20 compared to pOVA), the “Frequency of splenic OVA-specific Foxp3+ regulatory T cells (in words)” value is listed as “significant increase”. Besides, in series [3] (5 µg i.v. or equimolar, 6 days, spleen, gated on OVA-TCR+ CD4+ cells, n = 5-8), the “Mean ratio % TNF+/% Foxp3+ cells (effector cell/Treg ratio)” value was determined as 2.23. In series [3] (5 µg in vivo (based on peptide amount), day 7, lower pair of plots), the “IL-10 staining of OVA-specific cells after restimulation, representative plot gate number (Suppl. Fig. 3)” value is reported as 0.58. Also, the “De novo induction of Foxp3+ Tregs from Treg-depleted CD4+ cells” value in series [4] is “able to induce Foxp3^+ Tregs in all organs analyzed”. The “Frequency of OVA-specific (OVA-TCR+ CD4+) cells among host CD4+ splenocytes” value in series [5] is listed as “not reducing”. Also, the “Proliferative response of transferred Th1 cells” value in series [6] is recorded as “moderate proliferative response”. In addition, in series [7], the “Increase in Foxp3+ cells upon vaccination in presence of LPS” value is “completely suppressed”. In addition, the “Tolerance in Th1-driven DTH model (Δ footpad thickness)” value in series [8] was “partial tolerance”.

These data come from publication PMC7581722, “Tolerogenic Immunomodulation by PEGylated Antigenic Peptides” (Frontiers in Immunology, 2020).
